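Method: 48-hour compound exposure of cells in 96-well plates, five concentrations, linear interpolation of endpoints. At the GI50, growth is halved.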 The source made the active and inactive calls. Rule as the data show it: active = GI50 up to about 1.1 µM and inactive = higher.
Columns and labels:
Assay in all cases: growth of human tumour cells (NCI), 48 h
[1] = test system: DLD-1
[2] = test system: DMS-273
[3] = test system: M19-MEL
[4] = test system: A498
[5] = test system: ACHN
[6] = test system: RXF 631
[7] = test system: DU-145
[8] = test system: LXFL 529

Row | Structure (SMILES) | GI50 [1] | GI50 [2] | GI50 [3] | GI50 [4] | GI50 [5] | GI50 [6] | GI50 [7] | GI50 [8]
1 | CCCNC1=C(C)C(=O)C2=C(C1=O)[C@H](COC(N)=O)[C@]1(OC)[C@@H]3N[C@@H]3CN21 | 5 µM (inactive) | 0.257 µM (active) | 3.44 µM (inactive) | 2.69 µM (inactive) | – | – | – | –
2 | CC(=O)OCC1=C(C(=O)O)C(c2ccc3c(c2)OCO3)c2cc3c(cc2O1)OCO3 (configuration not stated) | > 100 µM (inactive) | > 100 µM (inactive) | > 100 µM (inactive) | – | > 100 µM (inactive) | > 100 µM (inactive) | – | –
3 | Cc1ccc(C(C)(C)C[P+](C)(c2ccccc2)c2ccccc2)cc1 | 27.2 µM (inactive) | 4.89 µM (inactive) | 4.52 µM (inactive) | 34.4 µM (inactive) | – | – | – | –
4 | COc1nc2ccc(COc3ccc(C(=O)NC(CCC(=O)O)C(=O)O)cc3)cc2nc1OC (configuration not stated) | – | – | – | – | > 10 µM (inactive) | – | > 10 µM (inactive) | –
5 | O=c1c(C(c2ccc(Cl)cc2)c2c(O)c3ccccc3n(-c3ccccc3)c2=O)c(O)c2ccccc2n1-c1ccccc1 | 7.08 µM (inactive) | 36.9 µM (inactive) | 48.1 µM (inactive) | – | 7.67 µM (inactive) | 19.1 µM (inactive) | – | 26.5 µM (inactive)
6 | Cc1ccc(C2C(C(=O)C(C)(C)C)N2S(=O)(=O)c2ccc(C)cc2)cc1 (configuration not stated) | – | – | – | – | – | – | 18.7 µM (inactive) | –
7 | N#Cc1c(NC(=S)NC(=O)c2ccccc2)nc2c(c1-c1ccccc1)CCC2 | – | – | – | – | > 100 µM (inactive) | – | > 100 µM (inactive) | –
8 | Cc1cc(C)c2c(O)cc(-c3ccc(F)cc3)nc2n1 | – | – | – | 27.4 µM (inactive) | 39.7 µM (inactive) | – | 66.1 µM (inactive) | –

— ChEMBL document CHEMBL1201862, “PubChem BioAssay data set” (2004)
